Test results published in paper PMC8715118, “Assessing potentiation of the (α4)3(β2)2 nicotinic acetylcholine receptor by the allosteric agonist CMPI” (The Journal of Biological Chemistry, 2021).
Where two headings read alike, the source gives them in different places.

Experiments:
(α4)3(β2)2 nAChR [1] = target: T1, (α4)3(β2)2 nAChR (Homo sapiens, UniProt P17787+P43681); test: Two-electrode voltage-clamp whole-cell currents, Xenopus oocytes expressing WT (α4)3(β2)2 nAChR; type: cell-based
T1 construct: expressed in transfected cells; host or cells: Xenopus laevis oocytes injected with cRNA, 8:1 α4:β2
T1 sequence (P43681 27-627): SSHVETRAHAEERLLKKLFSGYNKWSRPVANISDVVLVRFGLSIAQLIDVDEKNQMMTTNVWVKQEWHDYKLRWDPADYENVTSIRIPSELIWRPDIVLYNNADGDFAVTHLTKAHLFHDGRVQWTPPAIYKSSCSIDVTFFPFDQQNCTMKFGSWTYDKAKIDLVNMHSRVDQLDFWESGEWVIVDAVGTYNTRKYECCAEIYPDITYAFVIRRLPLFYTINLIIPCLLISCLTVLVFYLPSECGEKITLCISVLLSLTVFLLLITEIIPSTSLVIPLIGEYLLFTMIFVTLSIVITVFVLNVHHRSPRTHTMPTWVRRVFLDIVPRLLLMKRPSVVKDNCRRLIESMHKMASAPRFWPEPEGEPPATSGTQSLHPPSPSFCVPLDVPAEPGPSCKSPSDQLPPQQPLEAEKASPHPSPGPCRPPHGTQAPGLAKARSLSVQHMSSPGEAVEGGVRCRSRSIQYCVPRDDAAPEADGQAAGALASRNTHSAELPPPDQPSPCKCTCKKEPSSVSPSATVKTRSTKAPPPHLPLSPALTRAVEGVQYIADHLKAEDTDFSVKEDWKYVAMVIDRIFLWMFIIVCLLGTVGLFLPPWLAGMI
T1 sequence (P17787 26-502): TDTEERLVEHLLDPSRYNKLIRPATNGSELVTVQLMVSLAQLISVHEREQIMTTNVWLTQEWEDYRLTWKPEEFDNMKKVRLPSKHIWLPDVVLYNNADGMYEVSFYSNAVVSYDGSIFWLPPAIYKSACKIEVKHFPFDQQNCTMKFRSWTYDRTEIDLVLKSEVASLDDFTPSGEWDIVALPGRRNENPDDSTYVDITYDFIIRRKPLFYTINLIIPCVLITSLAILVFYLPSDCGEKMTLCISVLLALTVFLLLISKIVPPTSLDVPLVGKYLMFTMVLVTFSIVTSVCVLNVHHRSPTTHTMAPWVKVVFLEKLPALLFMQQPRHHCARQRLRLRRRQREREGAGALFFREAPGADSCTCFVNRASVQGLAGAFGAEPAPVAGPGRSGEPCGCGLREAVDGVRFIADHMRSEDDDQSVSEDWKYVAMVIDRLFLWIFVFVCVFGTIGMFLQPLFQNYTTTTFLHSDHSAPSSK
Method: (§1) Oocytes-positive female Xenopus laevis were purchased from NASCO, and all procedures were performed according to an animal use protocol approved by the Institutional Animals Care and Use Committee of The University of Texas Health Science Center at Tyler. Ovarian lobules were surgically harvested, treated with collagenase type 2, and Stage V and VI oocytes were visually selected and maintained at 18 °C in modified ND96-gentamicin buffer (96 mM NaCl, 2 mM KCl, 1.8 mM CaCl2, 1 mM MgCl2, 5 mM Hepes, and 50 μg/ml gentamicin, pH 7.6).
(§2) pSP64 Poly(A) plasmids with cDNA encoding for human α4 or β2 nAChR subunit were used to prepare cRNA transcripts suitable for oocyte expression. The plasmids were linearized with AseI (hα4) and PvuII (hβ2), then cRNA transcripts were prepared in vitro using mMESSAGE mMACHINE high yield-capped RNA transcription kits (Ambion, Thermo Fisher Scientific), purified on NucAway Spin column (Invitrogen, Thermo Fisher Scientific), and stored at −80 °C until used. Point mutations within the plasmid encoding the α4 nAChR subunit were introduced using QuikChange II Site-Directed Mutagenesis Kit (Agilent Technologies), as described previously ([28]). To generate amino acid substitutions (K64T, E66I, H116V, H116L, and H116A), two custom-designed complementary oligos containing the desired mutation were used (Integrated DNA Technologies). The forward primers were as the following with the codon for mutated amino acids are underlined and nucleotide(s) changes are bolded and italicized:
(§3) The oocytes were injected with 10 to 50 ng of a cRNA mix containing α4 (WT or mutant) and β2 RNAs at ratios of 8:1(α4:β) or 1:8 (α4:β2) to bias expression toward (α4)3(β2)2 or (α4)2(β2)3 nAChRs, respectively. The injection of oocytes with RNAs mixture containing four folds or higher α4 RNA than β2 RNA have been established to express receptor population that is made up of three α4 and two β2 subunits ([9], [12], [28], [43], [44], [45]).
(§4) 24 to 72 h after cRNA injection, Xenopus oocytes were placed in a custom-made recording chamber that is connected to an eight-channel automated perfusion system (Warner Instruments) and perfused with recording buffer (100 mM NaCl, 2 mM KCl, 1 mM CaCl2, 0.8 mM MgCl2, 1 mM EGTA, and 10 mM Hepes, pH 7.5). Unless otherwise specified in figure legends, each recording run included several drug applications (10 s of an agonist with or without CMPI or NS9283) separated by 3 to 4 min buffer wash intervals. Between recording runs, the oocytes were washed with recording buffer for at last 5 min. The oocytes were voltage-clamped at −50 mV using Oocyte Clamp OC-725B (Warner Instruments). The currents were digitized using Digidata 1550A (Axon Instruments, Molecular Devices), and the peak currents were quantified using pCLAMP 10 (Axon Instruments), then normalized and analyzed using Excel 2010 (Microsoft) and SigmaPlot 11.0 (Systat Software). For NS9283 and CMPI potentiation of agonist-induced responses, the peak currents were normalized to current elicited by agonist alone applied within the same recording run. For the effect of coapplication of 1 μM NS9283 or CMPI on agonist concentration-response curve, the peak currents were normalized to current elicited by saturating concentration of agonist applied within the same recording run. […] I0 = 100 for NS9283 and CMPI potentiation of agonist-induced responses and I0 = 0 for agonist concentration-response experiments. The best-fit values for Imax and EC50 ± SD are presented.

(α4H116A)3(β2)2 nAChR [2] = target: T2, (α4H116A)3(β2)2 nAChR (Homo sapiens, UniProt P17787+P43681, H142A); test: Two-electrode voltage-clamp, oocytes expressing (α4H116A)3(β2)2 nAChR; type: cell-based
T2 construct: expressed in transfected cells; host or cells: Xenopus laevis oocytes injected with cRNA, 8:1 α4:β2
T2 sequence (P43681 27-627 H142A): as the sequence (P43681 27-627) above, with H116A counted along it
T2 sequence (P17787 26-502): as the sequence (P17787 26-502) above
Method: as §1, §2, §3, §4

(α4E66I)3(β2)2 nAChR = target: T3, (α4E66I)3(β2)2 nAChR (Homo sapiens, UniProt P17787+P43681, E92I); test: Two-electrode voltage-clamp, oocytes expressing (α4E66I)3(β2)2 nAChR; type: cell-based
T3 construct: expressed in transfected cells; host or cells: Xenopus laevis oocytes injected with cRNA, 8:1 α4:β2
T3 sequence (P43681 27-627 E92I): as the sequence (P43681 27-627) above, with E66I counted along it
T3 sequence (P17787 26-502): as the sequence (P17787 26-502) above
Method: as §1, §2, §3
(§5) 24 to 72 h after cRNA injection, Xenopus oocytes were placed in a custom-made recording chamber that is connected to an eight-channel automated perfusion system (Warner Instruments) and perfused with recording buffer (100 mM NaCl, 2 mM KCl, 1 mM CaCl2, 0.8 mM MgCl2, 1 mM EGTA, and 10 mM Hepes, pH 7.5). Unless otherwise specified in figure legends, each recording run included several drug applications (10 s of an agonist with or without CMPI or NS9283) separated by 3 to 4 min buffer wash intervals. Between recording runs, the oocytes were washed with recording buffer for at last 5 min. […] The currents were digitized using Digidata 1550A (Axon Instruments, Molecular Devices), and the peak currents were quantified using pCLAMP 10 (Axon Instruments), then normalized and analyzed using Excel 2010 (Microsoft) and SigmaPlot 11.0 (Systat Software). […]

(α4H116L)3(β2)2 nAChR = target: T4, (α4H116L)3(β2)2 nAChR (Homo sapiens, UniProt P17787+P43681, H142L); test: Two-electrode voltage-clamp, oocytes expressing (α4H116L)3(β2)2 nAChR; type: cell-based
T4 construct: expressed in transfected cells; host or cells: Xenopus laevis oocytes injected with cRNA, 8:1 α4:β2
T4 sequence (P43681 27-627 H142L): as the sequence (P43681 27-627) above, with H116L counted along it
T4 sequence (P17787 26-502): as the sequence (P17787 26-502) above
Method: as §1, §2, §3, §5

(α4H116V)3(β2)2 nAChR = target: T5, (α4H116V)3(β2)2 nAChR (Homo sapiens, UniProt P17787+P43681, H142V); test: Two-electrode voltage-clamp, oocytes expressing (α4H116V)3(β2)2 nAChR; type: cell-based
T5 construct: expressed in transfected cells; host or cells: Xenopus laevis oocytes injected with cRNA, 8:1 α4:β2
T5 sequence (P43681 27-627 H142V): as the sequence (P43681 27-627) above, with H116V counted along it
T5 sequence (P17787 26-502): as the sequence (P17787 26-502) above
Method: as §1, §2, §3, §5

(α4H116A)3(β2)2 nAChR [3] = target: T2, (α4H116A)3(β2)2 nAChR; test: Mechanistic (Monod-Wyman-Changeux two-state model) analysis of current responses, (α4H116A)3(β2)2 nAChR; type: cell-based; details: α4:α4 site; for Kd: read-out: KR,CMPI
Method: Further analysis of electrophysiological data was conducted in the framework of the two-state concerted transition model, adapted from the MWC cyclic model originally used to describe enzyme function ([31], [32], [33]). The raw peak amplitudes of current responses were converted to units of probability of being in the active state (PA).
The numbers of α4:β2 and α4:α4 binding sites (Nα4:β2 and Nα4:α4) were constrained to 2 and 1, respectively.
The concentration-response curve for TC-2559 was fitted to the following equation:(3) PA=1/1+L[1+[TC-2559]/KR,TC-2559,α4:β2/1+[TC-2559]/(KR,TC-2559,α4:β2cTC-2559,α4:β2)]^Nα4:β2
The concentration-response data were analyzed using Equation 3, with the value of L modified to reflect receptor activation by TC-2559, and the affinity and efficacy terms in the equation reflecting the values for CMPI. The number of binding sites for CMPI in Equation 3 was constrained to 1.
Curve fitting was done using Origin 2020 (OriginLab Corp). The results are reported as best-fit parameter ±SD of the fit. All data are included in the analysis.

(α4)3(β2)2 nAChR [4] = target: T1, (α4)3(β2)2 nAChR; details: cited from earlier work
[5] = background of activity elicited by ACh
[6] = background of activity elicited by TC-2559

SMILES: Cc1c(-c2cc(-c3ccccc3Cl)no2)cnn1C1CCNCC1 [CMPI, 3-(2-chlorophenyl)-5-(5-methyl-1-(piperidin-4-yl)-1H-pyrrazol-4-yl)isoxazole]
- maximal potentiation ((α4)3(β2)2 nAChR [1]; 1 μM TC-2559): 880 ± 13%
- maximal potentiation equivalent, % of current elicited by 1 mM ACh ((α4)3(β2)2 nAChR [1]; 1 μM TC-2559 + CMPI): 44.6%
- maximal potentiation, % of control ((α4)3(β2)2 nAChR [1]; 1 μM cytisine): 716 ± 59%
- effect on responses to agonists at subsaturating concentrations ((α4)3(β2)2 nAChR [1]; 1 μM modulator, ACh, nicotine, cytisine, TC-2559, p < 0.001): potentiated
- effect on responses to saturating concentrations of the tested agonists ((α4)3(β2)2 nAChR [1]; 1 μM modulator, except for TC-2559): did not potentiate
- maximal potentiation, % of control ((α4)3(β2)2 nAChR [1]; 1 μM nicotine): 618 ± 34%
- maximal potentiation ((α4)3(β2)2 nAChR [1]; 10 μM TC-2559): 634 ± 94%
- maximal potentiation equivalent, % of current elicited by 1 mM ACh ((α4)3(β2)2 nAChR [1]; 10 μM TC-2559 + CMPI): 48.4%
- potentiation fold (Ave ± SD), agonist + 1 μM modulator / agonist alone ((α4)3(β2)2 nAChR [1]; ACh (1 mM), 1 μM modulator): 0.81 ± 0.15
- potentiation fold (Ave ± SD), agonist + 1 μM modulator / agonist alone ((α4)3(β2)2 nAChR [1]; TC 2559 (30 μM), 1 μM modulator): 6.41 ± 2.15
- EC50 ((α4)3(β2)2 nAChR [1]; receptors activated by 1 μM cytisine, read-out: EC50 for potentiation): 340 ± 80 nM
- EC50 ((α4)3(β2)2 nAChR [1]; receptors activated by 1 μM nicotine, read-out: EC50 for potentiation): 270 ± 40 nM
- EC50 ((α4)3(β2)2 nAChR [1]; responses induced by 1 μM TC-2559, read-out: potentiation EC50): 110 ± 10 nM
- EC50 ((α4)3(β2)2 nAChR [1]; responses induced by 10 μM TC-2559, read-out: potentiation EC50): 90 ± 40 nM
- potentiation fold (Ave ± SD), agonist + 1 μM modulator / agonist alone ((α4H116A)3(β2)2 nAChR [2]; ACh (1 mM)): 1.07 ± 0.13
- potentiation fold (Ave ± SD), agonist + 1 μM modulator / agonist alone ((α4H116A)3(β2)2 nAChR [2]; TC 2559 (30 μM)): 0.74 ± 0.13
- Imax of potentiation, % of control ((α4H116A)3(β2)2 nAChR [2]; TC-2559-induced current, normalized to 1 μM TC-2559): 634 ± 77%
- EC50 ((α4H116A)3(β2)2 nAChR [2]; normalized to 1 μM TC-2559, read-out: EC50 of potentiation of TC-2559-induced current): 200 ± 100 nM
- potentiation fold (Ave ± SD), agonist + 1 μM modulator / agonist alone ((α4E66I)3(β2)2 nAChR; ACh (1 mM)): 0.83 ± 0.10
- potentiation fold (Ave ± SD), agonist + 1 μM modulator / agonist alone ((α4E66I)3(β2)2 nAChR; TC 2559 (30 μM)): 0.99 ± 0.15
- potentiation fold (Ave ± SD), agonist + 1 μM modulator / agonist alone ((α4H116L)3(β2)2 nAChR; ACh (1 mM)): 0.82 ± 0.05
- potentiation fold (Ave ± SD), agonist + 1 μM modulator / agonist alone ((α4H116L)3(β2)2 nAChR; TC 2559 (30 μM)): 4.58 ± 0.24
- potentiation fold (Ave ± SD), agonist + 1 μM modulator / agonist alone ((α4H116V)3(β2)2 nAChR; ACh (1 mM)): 0.76 ± 0.05
- potentiation fold (Ave ± SD), agonist + 1 μM modulator / agonist alone ((α4H116V)3(β2)2 nAChR; TC 2559 (30 μM)): 3.01 ± 0.39
- cCMPI ((α4H116A)3(β2)2 nAChR [3]; [5]): 0.082 ± 0.007
- Kd ((α4H116A)3(β2)2 nAChR [3]; [5]): 440 ± 120 nM
- cCMPI ((α4H116A)3(β2)2 nAChR [3]; [6]): 0.099 ± 0.009
- Kd ((α4H116A)3(β2)2 nAChR [3]; [6]): 230 ± 80 nM
- left-shift of the ACh concentration-response curve ((α4)3(β2)2 nAChR [4]; CMPI at 1 μM): ~100 fold
- direct activation of the α4β2 receptor ((α4)3(β2)2 nAChR [4]): very weak direct activator
- current responses to EC10 (10 μM) ACh with coapplied CMPI, % of control ((α4)3(β2)2 nAChR [4]; maximal potentiation, 10 μM ACh): 386 ± 15%
- EC50 ((α4)3(β2)2 nAChR [4]; potentiation of 10 μM ACh response): 180 ± 30 nM
